pKd: −log10 of the molar value.

The data set has as its system HIV gag-pol stem loop. Briefly: Gel shift, oligonucleotide set binding to HIV gag-pol triple strand. The following applies: pH 5, 100 mM NaCl, 2 mM MgCl2, 1 mM spermidine. From the text: Binding to double stranded DNA or RNA is possible by formation of a three stranded complex, with the incoming third strand binding in the major groove of the duplex RNA or DNA. FIG. 6 illustrates a double stranded RNA structure from HIV known as the gag-pol stem loop (Vickers and Ecker, Nucleic Acids Research). One of the limitations in the design of triple strand interactions is the need to have a long stretch of homopurines as a target. The 3' (right) side of the gag-pol stem loop is homopurine except for a pair of cytosines near the bottom of the stem. To determine the best oligonucleotide to bind to the gag-pol stem loop, a group of RNA oligonucleotide sets was designed to bind to the purine-rich strand of the gag-pol stem-loop by Hoogstein base pairing and prepared in accordance with Examples 2 and 6. Binding to the gag-pol stemloop was measured by gel shift analysis as previously described in Example 8 with the following modifications: the radiolabeled gag-pol RNA was incubated with the oligonucleotide in 100 mM NaCl, 25 mM TRIS acetate (pH 5), 2 mM MgCl2, 1 mM spermidine. The gel was 15% acrylamide with 50 mM NaCl and 2 mM MgCl2 added to the running buffer.
Take “A2: RNA oligonucleotide, SEQ ID NO: 10 (CCCUUCCCAUC; RNA, backbone not given here) [Set A2]”: the pKd was 5.00.

On to “B2: RNA oligonucleotide, SEQ ID NO: 11 (CCCUUCCCGUC; RNA, backbone not given here) [Set B2]”, for which the pKd was 5.00.

With “C2: RNA oligonucleotide, SEQ ID NO: 12 (CCCUUCCCCUC; RNA, backbone not given here) [Set C2]”, the pKd is 6.00.

“D2: RNA oligonucleotide, SEQ ID NO: 13 (CCCUUCCCUUC; RNA, backbone not given here) [Set D2]”: the pKd is 5.00.

In general, pKd refers to the negative decadic logarithm of the Kd, by convention in mol/L.
